Molecular target: T1, Separase (Homo sapiens, UniProt Q14674)
T1 construct: made in house; host or cells: 293T cells; released from IgG-Agarose by TEV protease
Assay: Fluorogenic Separase activity assay using (Rad21)2-Rh110 as substrate
Type: biochemical
Conditions: DMSO final concentration 2% to 38%
Experimental: The substrate used in this Example is (Rad21)2-Rh110, which has two Rad21 peptide molecules (Asp-Arg-Glu-Ile-Nle-Arg) conjugated to one molecule of Rhodamine 110 (Rh110) (CPC Scientific, Sunnyvale Calif.). The assay was set up using 384-well low volume black polystyrene plates (Corning, N.Y.). Fifteen micro liter of activated Separase (˜5 ng) was mixed with 5 μl of test compound. The cleavage buffer (CB) used to dilute reagents was (30 mM Hepes-KOH pH7.7, 50 mM NaCl, 25 mM NaF, 25 mM KCl, 5 mM MgCl2, 1.5 mM ATP, and 1 mM EGTA). The mixture was incubated at room temperature for 1 h, and then 5 μl of 0.2 mM substrate (Rad21)2-Rh110 was added. The positive control contained Separase, substrate and CB without the test compound. The negative control contained substrate and CB only. After the reaction mixture was incubated at 37° C. for 3 h, the relative fluorescence intensity was measured (without stopping the enzymatic activity) at λex=390 nm/λem=450 nm for […] (AMC) released from Rad21-MCA or λex=490 nm/λem=528 nm for Rh110 released from (Rad21)2-Rh110 using a Synergy™ 4 Multi-Mode Microplate Reader (BioTek Instruments Inc., Winooski, Vt.).
Different amounts of Sepin-1 were mixed with activated Separase for 30 min before substrate (Rad21)2-Rh110 was added. After 3 h incubation at 37° C., the fluorescence intensity of Rh110 was determined. IC50 was calculated using either KaleidaGraph program (Synerge software, Reading, Pa.) or four parameter logistic equation (4-parameter dose-response curve fit): Inhibition of Activity (%)=min+(max−min)/{1+(log [M]/IC50)}^Hill Slop, where “min” and “max” represent minimal and maximal activity inhibition, respectively. Hill Slop is the slope of the curve at its midpoint. To identify the mode of Sepin-1 interacting with Separase, different amounts of both Sepin-1 and (Rad21)2-Rh110 were used in the Separase activity assay.

T1 sequence (Q14674 whole entry): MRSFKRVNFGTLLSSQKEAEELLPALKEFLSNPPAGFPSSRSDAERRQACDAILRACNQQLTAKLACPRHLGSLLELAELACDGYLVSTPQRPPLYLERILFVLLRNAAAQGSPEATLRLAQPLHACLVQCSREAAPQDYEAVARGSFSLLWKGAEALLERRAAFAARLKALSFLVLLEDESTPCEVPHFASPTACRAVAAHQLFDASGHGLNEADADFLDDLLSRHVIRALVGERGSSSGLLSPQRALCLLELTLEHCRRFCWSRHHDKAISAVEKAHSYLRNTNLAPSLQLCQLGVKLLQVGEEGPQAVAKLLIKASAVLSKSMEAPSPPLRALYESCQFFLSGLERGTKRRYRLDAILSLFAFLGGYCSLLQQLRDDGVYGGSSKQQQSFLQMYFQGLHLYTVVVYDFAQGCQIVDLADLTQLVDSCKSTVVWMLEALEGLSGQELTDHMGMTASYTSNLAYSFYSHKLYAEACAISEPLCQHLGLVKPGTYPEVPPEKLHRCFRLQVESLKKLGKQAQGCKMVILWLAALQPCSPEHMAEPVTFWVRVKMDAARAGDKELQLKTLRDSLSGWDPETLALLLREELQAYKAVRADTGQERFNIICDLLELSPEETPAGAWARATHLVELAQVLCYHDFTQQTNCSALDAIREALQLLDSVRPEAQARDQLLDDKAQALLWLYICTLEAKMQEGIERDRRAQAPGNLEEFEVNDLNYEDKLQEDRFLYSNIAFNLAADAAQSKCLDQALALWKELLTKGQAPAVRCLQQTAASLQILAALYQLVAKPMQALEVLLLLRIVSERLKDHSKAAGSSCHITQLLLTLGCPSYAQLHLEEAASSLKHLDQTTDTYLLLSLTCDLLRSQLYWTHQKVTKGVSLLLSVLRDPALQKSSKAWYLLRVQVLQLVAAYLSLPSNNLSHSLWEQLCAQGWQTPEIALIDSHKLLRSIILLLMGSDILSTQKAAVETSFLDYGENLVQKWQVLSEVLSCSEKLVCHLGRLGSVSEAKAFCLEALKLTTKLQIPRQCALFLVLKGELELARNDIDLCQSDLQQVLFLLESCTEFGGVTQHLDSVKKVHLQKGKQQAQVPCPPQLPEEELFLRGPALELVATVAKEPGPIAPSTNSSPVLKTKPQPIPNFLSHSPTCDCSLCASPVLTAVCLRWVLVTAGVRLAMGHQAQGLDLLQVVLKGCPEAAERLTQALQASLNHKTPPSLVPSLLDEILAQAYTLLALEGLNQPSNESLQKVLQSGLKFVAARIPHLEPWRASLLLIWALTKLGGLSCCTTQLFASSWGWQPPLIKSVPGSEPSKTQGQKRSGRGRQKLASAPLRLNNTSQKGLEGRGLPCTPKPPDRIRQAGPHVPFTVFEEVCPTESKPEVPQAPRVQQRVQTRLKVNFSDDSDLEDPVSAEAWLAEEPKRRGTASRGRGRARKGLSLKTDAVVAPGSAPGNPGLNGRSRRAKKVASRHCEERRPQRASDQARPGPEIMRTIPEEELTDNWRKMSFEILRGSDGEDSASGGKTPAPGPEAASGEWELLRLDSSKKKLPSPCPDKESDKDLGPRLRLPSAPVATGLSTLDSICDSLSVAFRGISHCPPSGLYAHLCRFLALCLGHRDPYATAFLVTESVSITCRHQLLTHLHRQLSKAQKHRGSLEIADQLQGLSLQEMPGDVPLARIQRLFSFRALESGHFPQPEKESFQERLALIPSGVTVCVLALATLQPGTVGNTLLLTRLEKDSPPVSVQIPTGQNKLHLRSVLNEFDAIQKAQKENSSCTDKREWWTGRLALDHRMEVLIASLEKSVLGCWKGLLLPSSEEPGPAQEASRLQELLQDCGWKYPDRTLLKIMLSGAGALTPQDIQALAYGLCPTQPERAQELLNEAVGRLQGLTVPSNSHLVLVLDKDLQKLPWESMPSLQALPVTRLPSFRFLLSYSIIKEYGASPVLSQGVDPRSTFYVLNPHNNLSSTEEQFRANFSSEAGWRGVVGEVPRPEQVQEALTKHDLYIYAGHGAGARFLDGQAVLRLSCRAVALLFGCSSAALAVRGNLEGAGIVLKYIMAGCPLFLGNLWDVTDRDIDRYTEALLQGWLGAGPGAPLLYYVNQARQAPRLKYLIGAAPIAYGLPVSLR

IC50 of DMSO on Separase assay: ~27%
Structure (SMILES): C[S+](C)[O-] [DMSO]

— patent US10052310B2, “Separase inhibitors and uses thereof” (Baylor College of Medicine, priority 2013, dated 2018)
